# Article PMC4176650 (BioMed Research International, 2014)
# “Also recorded” adds a separate entry of the source. Where two headings read alike, the source gives them in different places.
# How the values were obtained:
# [1] = Viability of human neutrophils (WST-1); assay type: cell-based; details: isolated human neutrophils; human neutrophils 1 × 10^7 cells/mL; conc. 200 µg/mL
# Method: Heparinized fresh venous blood was drawn from healthy volunteers in a local blood bank and the neutrophils were isolated by developed method of McLaughlin et al.. 45 The whole blood was mixed with Ficoll-Paque (Pharmacia Biotech Amersham, Uppsala). After sedimentation the unwanted red blood cells (RBCs) were layered as a buffy coat on the cushion of Ficoll (3.0 mL). It was then centrifuged for 30 min. at 1500 rpm, and supernatant was discarded. Further treated with hypotonic ammonium chloride solution (0.83%) to lyse RBCs. The preparation was then centrifuged and the neutrophils were washed with Modified Hank's Solution (MHS) and resuspended at a concentration of 1 × 10^7 cells/mL.
# Isolated human neutrophils (1 × 10^7 cells/mL) were incubated first with test compounds for 30 min., and then after the addition of 0.25 mM WST-1 (Dojindo Laboratories Kumamoto, Japan) in water bath shaker at 37°C [18, 19]. After 3 hrs incubation, change in the absorbance was measured at 450 nm in 96-well plate by using microplate reader Spectra MAX 340 (Molecular Devices, CA, USA). The OD is the mean of the five experimental replicates. The percentage (%) cell viability was calculated by using the following formula: (1) Percentage (%) viability of cells =[…].
# [2] = biological target: Bacillus pasteurii urease (Sporosarcina pasteurii, UniProt P41020); assay: Urease assay and inhibition kinetics, Bacillus pasteurii urease; assay type: biochemical; parameters: Vmaxapp: unit not given here; details: for Kmapp: Km without inhibitor 5.1 mM; for Vmaxapp: Vmax without inhibitor 160
# Method: (§1) Reaction mixtures comprising 25 μL of enzyme (Jack bean and Bacillus pasteurii ureases) solution and 55 μL of buffers containing urea (2–24 mM for jack bean and Bacillus pasteurii ureases) were incubated with 5 μL of test compounds at 30°C for 4.15 min in 96-well plates. The increasing absorbance at 560 nm was measured after 10 min, using a microplate reader (Molecular Devices, USA). All reactions were performed in triplicate in a final volume of […]. The results (change in absorbance per min.) were processed by using SoftMax Pro software (Molecular Devices, USA). All the assays were performed at pH 6.8 (3 mM sodium phosphate buffer) and 7 μg of phenol red per mL as indicator [10]. Percentage inhibitions were calculated from the formula 100 − (ODtestwell/ODcontrol) × 100. Thiourea was used as the standard inhibitor of urease.
# (§2) The concentration of tested compounds that inhibited the hydrolysis of substrates (Jack bean urease and Bacillus pasteurii ureases) by 50% (IC50) was determined by monitoring the effect of various concentrations of the compounds in the assays on the inhibition values. The IC50 (inhibitor conc. that inhibits 50% activity of both enzymes) values were then calculated using the EZ-Fit Enzyme Kinetics program (Perrella Scientific Inc., Amherst, USA).
# (§3) Dissociation constant/inhibition constant (K i) were determined by the interpretation of Dixon plot. Lineweaver-Burk plot and their secondary replots using initial velocities obtained over a substrate concentration range between 2.0 and 24 mM urea for J.B. and B.P. ureases, respectively. Nonlinear regression equations were used to determine the values of K I, K m, and V max in the Lineweaver-Burk plot and Dixon plots. The K i values dissociation constant/inhibition constant of J.B. urease-inhibitor or B.P. urease-inhibitor complex into free J.B. urease or B.P. urease and inhibitor was determined graphically by Dixon plot and Lineweaver-Burk plots.
# [3] = test system: Lemna aequinoctialis Welv.; assay: Lemna phytotoxicity assay; details: seven days
# Method: The assay was performed according to the modified protocol of Bremner. […] Sterilized conical flasks were inoculated with compounds with desired concentrations prepared from the stock solution and allowed to evaporate overnight. Each flask was inoculated with 20 mL of sterilized E-medium and ten Lemna aequinoctialis Welv. each containing a rosette of three fronds. Other flasks were supplemented with methanol serving as negative control and reference inhibitor, that is, phosphoroamide (a urease inhibitor already in commercial use) serving as positive control. The treatments were replicated three times and the flasks incubated at 30°C Fisons Fi-Totron 600 H growth cabinet for seven days, 9000 lux light intensity, 56 ± 10 rh (relative humidity), and 12 h day length. Growth of Lemna aequinocitalis in compound containing flask was determined by counting the number of fronds per dose and growth inhibition calculated with reference to negative control.
# Jack bean urease = Jack bean urease (Canavalia ensiformis, UniProt P07374); assay: biochemical; details: for Type of inhibition / Kmapp / Vmaxapp: Urease (JB); for Kmapp: Km without inhibitor 2.5 mM; for Vmaxapp: Vmax without inhibitor 105
# Method: as §1, §2, §3
# [4] = Urease (BP), Dixon plot and secondary Lineweaver-Burk plot, pH 6.8, 30°C, read-out: Ki (µM) ± SEM
# Bacillus pasteurii urease, sequence (P41021 whole entry): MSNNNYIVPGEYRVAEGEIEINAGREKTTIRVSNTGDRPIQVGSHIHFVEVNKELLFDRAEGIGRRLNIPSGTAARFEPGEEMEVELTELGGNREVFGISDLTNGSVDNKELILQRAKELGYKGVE
# Bacillus pasteurii urease, sequence (P41022 whole entry, further chain): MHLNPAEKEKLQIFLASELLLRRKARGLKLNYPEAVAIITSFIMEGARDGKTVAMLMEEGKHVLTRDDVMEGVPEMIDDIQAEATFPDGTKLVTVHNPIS
# Bacillus pasteurii urease, sequence (P41020 whole entry): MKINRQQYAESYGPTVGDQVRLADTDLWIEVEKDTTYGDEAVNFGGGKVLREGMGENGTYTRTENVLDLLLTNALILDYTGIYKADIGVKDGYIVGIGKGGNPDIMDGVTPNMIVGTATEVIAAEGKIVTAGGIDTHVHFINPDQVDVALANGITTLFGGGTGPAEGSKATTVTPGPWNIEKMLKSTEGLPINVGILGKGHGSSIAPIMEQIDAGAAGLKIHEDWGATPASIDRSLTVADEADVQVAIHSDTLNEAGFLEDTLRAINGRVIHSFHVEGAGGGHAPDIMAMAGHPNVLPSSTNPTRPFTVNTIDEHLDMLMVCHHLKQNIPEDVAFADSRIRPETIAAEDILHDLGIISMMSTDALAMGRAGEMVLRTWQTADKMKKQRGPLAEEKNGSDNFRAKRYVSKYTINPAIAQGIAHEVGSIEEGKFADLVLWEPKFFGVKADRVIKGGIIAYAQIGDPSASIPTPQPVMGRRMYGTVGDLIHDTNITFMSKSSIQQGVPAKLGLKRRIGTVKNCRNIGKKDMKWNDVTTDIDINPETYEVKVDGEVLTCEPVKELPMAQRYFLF
# Jack bean urease, sequence (P07374 whole entry, looked up): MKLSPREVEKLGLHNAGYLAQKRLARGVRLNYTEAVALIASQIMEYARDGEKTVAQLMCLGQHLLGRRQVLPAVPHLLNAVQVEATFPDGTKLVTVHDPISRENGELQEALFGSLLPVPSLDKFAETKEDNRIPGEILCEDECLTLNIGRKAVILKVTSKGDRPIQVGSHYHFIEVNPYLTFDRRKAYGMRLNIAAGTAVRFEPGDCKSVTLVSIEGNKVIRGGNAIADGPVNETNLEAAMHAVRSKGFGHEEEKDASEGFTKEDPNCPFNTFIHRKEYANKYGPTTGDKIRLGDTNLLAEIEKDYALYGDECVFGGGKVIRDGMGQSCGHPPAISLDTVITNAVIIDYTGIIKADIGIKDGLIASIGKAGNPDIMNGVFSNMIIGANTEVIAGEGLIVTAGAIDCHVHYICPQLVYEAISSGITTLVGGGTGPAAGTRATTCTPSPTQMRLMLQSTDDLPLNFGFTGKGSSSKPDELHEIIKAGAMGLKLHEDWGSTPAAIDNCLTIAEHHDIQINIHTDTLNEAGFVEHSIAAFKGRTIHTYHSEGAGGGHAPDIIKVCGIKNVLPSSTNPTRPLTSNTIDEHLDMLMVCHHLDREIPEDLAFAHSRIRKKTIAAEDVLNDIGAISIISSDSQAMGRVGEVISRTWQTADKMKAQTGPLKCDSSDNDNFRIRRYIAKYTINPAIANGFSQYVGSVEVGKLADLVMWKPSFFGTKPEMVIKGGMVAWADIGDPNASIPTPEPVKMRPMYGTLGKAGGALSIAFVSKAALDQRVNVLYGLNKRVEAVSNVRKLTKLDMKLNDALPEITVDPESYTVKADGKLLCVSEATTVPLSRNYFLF
compound,measurement,setting,value
COc1cccc(C(c2c(O)c3ccccc3oc2=O)c2c(O)c3ccccc3oc2=O)c1 [compound 1],viability at 200 µg/mL,[1],67.5 ± 3.1%
same,Type of inhibition,[2]; Urease (BP),competitively; also recorded: Competitive
same,Ki,[2]; [4],15.5 ± 0.2 µM
same,Kmapp,[2]; Urease (BP),11.3 mM
same,Vmaxapp,[2]; Urease (BP),159.3
same,Lemna Welv. phytotoxicity (growth inhibition),[3]; conc. of compound 10 μg/mL,9.9
same,Lemna Welv. phytotoxicity (growth inhibition),[3]; conc. of compound 100 μg/mL,60.3
same,Lemna Welv. phytotoxicity (growth inhibition),[3]; conc. of compound 1000 μg/mL,80
same,Ki,Jack bean urease,19.3 ± 0.1 µM
same,Type of inhibition,Jack bean urease,Competitive
same,Kmapp,Jack bean urease,5.6 mM
same,Vmaxapp,Jack bean urease,109
O=c1oc2ccccc2c(O)c1C(c1ccncc1)c1c(O)c2ccccc2oc1=O [compound 2],viability at 200 µg/mL,[1],85.1 ± 2.5%
same,Type of inhibition,[2]; Urease (BP),Noncompetitive
same,Ki,[2]; [4],51.3 ± 0.4 µM
same,Kmapp,[2]; Urease (BP),5.2 mM
same,Vmaxapp,[2]; Urease (BP),98.0
same,Lemna Welv. phytotoxicity (growth inhibition),[3]; conc. of compound 10 μg/mL,6.5
same,Lemna Welv. phytotoxicity (growth inhibition),[3]; conc. of compound 100 μg/mL,33
same,Lemna Welv. phytotoxicity (growth inhibition),[3]; conc. of compound 1000 μg/mL,52.7
same,Ki,Jack bean urease,71 ± 0.3 µM
same,Type of inhibition,Jack bean urease,Competitive
same,Kmapp,Jack bean urease,7.7 mM
same,Vmaxapp,Jack bean urease,106
CC(c1c(O)c2ccccc2oc1=O)c1c(O)c2ccccc2oc1=O [compound 3],viability at 200 µg/mL,[1],100 ± 1%
same,Type of inhibition,[2]; Urease (BP),Uncompetitive
same,Ki,[2]; [4],53 ± 0.01 µM
same,Kmapp,[2]; Urease (BP),4.0 mM
same,Vmaxapp,[2]; Urease (BP),115.3
same,Lemna Welv. phytotoxicity (growth inhibition),[3]; conc. of compound 10 μg/mL,6.4
same,Lemna Welv. phytotoxicity (growth inhibition),[3]; conc. of compound 100 μg/mL,22.5
same,Lemna Welv. phytotoxicity (growth inhibition),[3]; conc. of compound 1000 μg/mL,54.8
same,Ki,Jack bean urease,59.4 ± 0.1 µM
same,Type of inhibition,Jack bean urease,Competitive
same,Kmapp,Jack bean urease,8.3 mM
same,Vmaxapp,Jack bean urease,108
C/C=C/C(c1c(O)c2ccccc2oc1=O)c1c(O)c2ccccc2oc1=O [compound 4],viability at 200 µg/mL,[1],13.2 ± 4.2%
same,Type of inhibition,[2]; Urease (BP),Uncompetitive
same,Ki,[2]; [4],48.3 ± 0.01 µM
same,Kmapp,[2]; Urease (BP),3.8 mM
same,Vmaxapp,[2]; Urease (BP),101.0
same,Lemna Welv. phytotoxicity (growth inhibition),[3]; conc. of compound 10 μg/mL,38.23
same,Lemna Welv. phytotoxicity (growth inhibition),[3]; conc. of compound 100 μg/mL,100
same,Ki,Jack bean urease,65.9 µM
same,Type of inhibition,Jack bean urease,Competitive
same,Kmapp,Jack bean urease,9.1 mM
same,Vmaxapp,Jack bean urease,105
O=c1oc2ccccc2c(O)c1C(c1cc[nH]c1)c1c(O)c2ccccc2oc1=O [compound 5],viability at 200 µg/mL,[1],100 ± 0.5%
same,Type of inhibition,[2]; Urease (BP),Uncompetitive
same,Ki,[2]; [4],68.1 ± 0.3 µM
same,Kmapp,[2]; Urease (BP),3.9 mM
same,Vmaxapp,[2]; Urease (BP),93.7
same,selectivity between B.P. urease and J.B. urease,[2]; comparison of potency against both ureases,selective for J.B. uraese
same,Lemna Welv. phytotoxicity (growth inhibition),[3]; conc. of compound 10 μg/mL,9.00
same,Lemna Welv. phytotoxicity (growth inhibition),[3]; conc. of compound 100 μg/mL,25.00
same,Lemna Welv. phytotoxicity (growth inhibition),[3]; conc. of compound 1000 μg/mL,61.4
same,Ki,Jack bean urease,53.3 ± 0.4 µM
same,Type of inhibition,Jack bean urease,Competitive
same,Kmapp,Jack bean urease,7.8 mM
same,Vmaxapp,Jack bean urease,103
CCCCC(c1c(O)c2ccccc2oc1=O)c1c(O)c2ccccc2oc1=O [compound 6],viability at 200 µg/mL,[1],45.5 ± 4%
same,Type of inhibition,[2]; Urease (BP),competitively; also recorded: Competitive
same,Ki,[2]; [4],27.5 µM
same,Kmapp,[2]; Urease (BP),13.0 mM
same,Vmaxapp,[2]; Urease (BP),159.2
same,Lemna Welv. phytotoxicity (growth inhibition),[3]; conc. of compound 10 μg/mL,10.60
same,Lemna Welv. phytotoxicity (growth inhibition),[3]; conc. of compound 100 μg/mL,42.50
same,Lemna Welv. phytotoxicity (growth inhibition),[3]; conc. of compound 1000 μg/mL,69.6
same,Ki,Jack bean urease,75 ± 0.1 µM
same,Type of inhibition,Jack bean urease,Competitive
same,Kmapp,Jack bean urease,9.5 mM
same,Vmaxapp,Jack bean urease,106
O=c1oc2ccccc2c(O)c1Cc1c(O)c2ccccc2oc1=O [compound 7],viability at 200 µg/mL,[1],100 ± 4.3%
same,Ki,[2],13.3 ± 0.2 µM
same,Type of inhibition,[2]; Urease (BP),competitively; also recorded: Competitive
same,Kmapp,[2]; Urease (BP),9.9 mM
same,Vmaxapp,[2]; Urease (BP),162.5
same,Ki,Jack bean urease,15 ± 0.1 µM
same,Type of inhibition,Jack bean urease,Competitive
same,Kmapp,Jack bean urease,7.6 mM
same,Vmaxapp,Jack bean urease,102
O=c1oc2ccccc2c(O)c1C(/C=C/c1ccccc1)c1c(O)c2ccccc2oc1=O [compound 8],viability at 200 µg/mL,[1],100 ± 5.2%
same,Type of inhibition,[2]; Urease (BP),competitively; also recorded: Competitive
same,Ki,[2]; [4],19 ± 0.1 µM
same,Kmapp,[2]; Urease (BP),7.7 mM
same,Vmaxapp,[2]; Urease (BP),161.7
same,Lemna Welv. phytotoxicity (growth inhibition),[3]; conc. of compound 10 μg/mL,13.00
same,Lemna Welv. phytotoxicity (growth inhibition),[3]; conc. of compound 100 μg/mL,22.99
same,Lemna Welv. phytotoxicity (growth inhibition),[3]; conc. of compound 1000 μg/mL,70.0
same,Ki,Jack bean urease,21.5 µM
same,Type of inhibition,Jack bean urease,Competitive
same,Kmapp,Jack bean urease,7.5 mM
same,Vmaxapp,Jack bean urease,104
O=c1oc2ccccc2c(O)c1C(c1c(O)c2ccccc2oc1=O)c1c[nH]c2ccccc12 [compound 9],viability at 200 µg/mL,[1],100 ± 5.2%
same,Type of inhibition,[2]; Urease (BP),Uncompetitive
same,Ki,[2]; [4],59.5 ± 0.2 µM
same,Kmapp,[2]; Urease (BP),3.2 mM
same,Vmaxapp,[2]; Urease (BP),97.2
same,Lemna Welv. phytotoxicity (growth inhibition),[3]; conc. of compound 10 μg/mL,41.66
same,Lemna Welv. phytotoxicity (growth inhibition),[3]; conc. of compound 100 μg/mL,50.00
same,Ki,Jack bean urease,62.9 ± 0.5 µM
same,Type of inhibition,Jack bean urease,Competitive
same,Kmapp,Jack bean urease,11.6 mM
same,Vmaxapp,Jack bean urease,108
O=c1oc2ccccc2c(O)c1C(c1cccnc1)c1c(O)c2ccccc2oc1=O [compound 10],viability at 200 µg/mL,[1],95.4 ± 5.2%
same,Type of inhibition,[2]; Urease (BP),competitively
same,Ki,[2]; [4],63.6 ± 0.2 µM
same,Kmapp,[2]; Urease (BP),10.3 mM
same,Lemna Welv. phytotoxicity (growth inhibition),[3]; conc. of compound 10 μg/mL,23.8
same,Lemna Welv. phytotoxicity (growth inhibition),[3]; conc. of compound 100 μg/mL,47.6
same,Lemna Welv. phytotoxicity (growth inhibition),[3]; conc. of compound 1000 μg/mL,57.14
same,Ki,Jack bean urease,68 ± 0.1 µM
same,Type of inhibition,Jack bean urease,Competitive
same,Kmapp,Jack bean urease,10.6 mM
same,Vmaxapp,Jack bean urease,105
